Reference: publication PMC5584760, “Rational design of drug-like compounds targeting Mycobacterium marinum MelF protein” (PLoS ONE, 2017)
In brackets after ≈: the same amount, converted by molar mass. Several values for one entry are separate records, joined by “and”; a condition that tells them apart may be missing. Identical values can stand only once. Like-named read-outs stand apart in the source and are kept apart here.

Key:
[1] = test system: M. tuberculosis; assay: MBC by CFU assay; type: cell-based, M. tuberculosis H37Rv; details: for MBC, M. tuberculosis / MBC: CFU assay, 96 h, median (range) of three independent experiments; for MBC/MIC, M. tuberculosis: ratio, bactericidal when ≤ 4; for MBC: Mycobacterium tuberculosis
[2] = test system: M. tuberculosis; assay: MBC of combinations of drugs (RIF/INH) and inhibitors; type: cell-based, M. tuberculosis H37Rv; details: for bactericidal effect in combination with RIF against M. tuberculosis: compared with RIF alone
[3] = test system: M. marinum; assay: MIC by resazurin microtiter plate assay (REMA); type: cell-based, M. marinum strain M; details: 48 h, ~5 X 10^6/well, median (range) of three independent experiments; for MIC: Mycobacterium marinum
[4] = test system: M. tuberculosis; assay: MIC by resazurin microtiter plate assay (REMA); type: cell-based, M. tuberculosis H37Rv; details: 96 h, ~5 X 10^6/well, median (range) of three independent experiments; for MIC: Mycobacterium tuberculosis
[5] = target: purified MelF (Mycobacterium marinum, UniProt Q5SDQ6); assay: Ki determination by Dixon plots; type: biochemical; details: for Ki: Dixon plots, substrate 50, 100 and 150 μM; for type of inhibition (Dixon's plot): intersection of Dixon's plots
Method: The enzyme activity was assayed by monitoring a decrease in absorption of NADH (nicotinamide adenine dinucleotide) at 340 nm (ε = 6.22 X 10^3 M^-1cm^-1) in 50 mM Tris-Cl, pH 7.4 at 25°C. The steady state kinetic measurements were performed in a 1-cm path length cuvette in a final volume of 1mL according to the method of Kendrew et al. with slight modifications. 300μM of NADH and 80μM of FAD (flavin adenine dinucleotide) were added and the assay was initiated with the addition of 100 μg (6.09× 10^−10 mole) of enzyme present in WCL/purified MelF. The reaction was followed at 25°C for 5 min. The FAD was kept in the dark to prevent photo-reduction. The specific activity of the enzyme was calculated as Units/mg = ΔA340/min/6.22×mg enzyme/ mL reaction mixture Where ΔA340 represents a change in absorbance of NADH at 340 nm.
Ki values were calculated using Dixon plots, where inverse of Vmax values were plotted against the inhibitor concentration using different substrate concentrations.

[6] = test system: M. marinum; assay: MBC by CFU assay; type: cell-based, M. marinum strain M; details: for MBC, M. marinum / MBC: CFU assay, 48 h, median (range) of three independent experiments; for MBC/MIC, M. marinum: ratio, bactericidal when ≤ 4; for MBC: Mycobacterium marinum
[7] = test system: HeLa cells; assay: MTT cytotoxicity assay; type: cell-based, Human; details: 20 h
Method: The MTT (3-(4, 5-dimethyl thiazol-2yl)-2, 5-diphenyl tetrazolium bromide) assay was employed to assess the cytotoxicity of the inhibitors. HeLa cells (Human cervical epithelial cells) were plated at a concentration of 1×10^5/well in 100 μL of minimal essential medium (MEM) supplemented with 10% heat-inactivated fetal bovine serum (FBS) in 96-well plates. After overnight incubation at 37°C in 5% CO2 incubator, media was removed and the inhibitors were added in 100 μL of MEM + 10% heat-inactivated FBS at 1X and 5 X MIC concentrations. After incubation for 20 h, the cells were washed thrice with warm MEM (without FBS) and 200 μL of MTT (5mg/mL) was added. The plates were further incubated for 4 h, followed by the addition of 50 μL of DMSO (solubilizing reagent) per well, mixed thoroughly by a micropipette and left for 45 s. Presence of viable cells was visualized by the development of purple color due to formation of formazan crystals. The OD values were read at 595 nm using DMSO as a blank. A standard graph was plotted between the concentration of inhibitors and the relative cell viability.
Cell viability (%) = Test OD /Control ODX 100

[8] = test system: M. tuberculosis; assay: Resazurin drugs combination microtiter assay (RIF/INH + inhibitor); type: cell-based, M. tuberculosis H37Rv; details: for FICI in combination with INH, M. tuberculosis: synergistic inhibitory effect
[9] = test system: M. marinum; assay: as above; type: cell-based, M. marinum strain M; details: for FICI in combination with INH, M. marinum: synergistic inhibitory effect
[10] = at both 1X and 5X MIC concentrations

purified MelF, sequence (Q5SDQ6 entry or part of it): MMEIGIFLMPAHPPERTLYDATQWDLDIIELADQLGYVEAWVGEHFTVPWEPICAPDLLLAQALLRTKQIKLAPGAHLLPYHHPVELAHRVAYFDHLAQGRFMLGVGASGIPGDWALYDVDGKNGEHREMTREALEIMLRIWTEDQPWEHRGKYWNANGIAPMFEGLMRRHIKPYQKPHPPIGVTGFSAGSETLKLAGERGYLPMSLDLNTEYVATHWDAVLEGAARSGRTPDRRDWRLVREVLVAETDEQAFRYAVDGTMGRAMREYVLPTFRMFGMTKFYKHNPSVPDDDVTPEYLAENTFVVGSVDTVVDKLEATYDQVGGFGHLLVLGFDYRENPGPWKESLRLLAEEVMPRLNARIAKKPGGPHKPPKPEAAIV

Row | Compound | MBC, M. tuberculosis [1] | MBC/MIC, M. tuberculosis [1] | MIC, M. marinum [3] | MIC, M. tuberculosis [4] | Ki ([5]; read-out: Ki) | type of inhibition (Dixon's plot) [5] | MBC, M. marinum [6] | MBC/MIC, M. marinum [6] | FICI in combination with INH, M. tuberculosis [8] | MBC [1] [µM] | MIC [3] [µM] | MIC [4] [µM] | Ki ([5]; Ki) | MBC [6] [µM] | cytotoxicity in HeLa cells [7, 10] | also measured
1 | 2,2'-[3-(3-methoxyphenyl)-1,2-propanediyl]bis-1H-benzimidazole [compound 9125618] | 37.61 (37.61) μM | 1 | 9.57–19.39 μM and 18.80 (9.40–18.80) μM | 32.68–38.77 μM and 37.61 (18.80–37.61) μM | 24 µM and 25 µM | noncompetitive inhibition | 37.61 (37.61) μM | 2 |  |  |  |  |  |  |  | bactericidal effect in combination with RIF against M. tuberculosis [2]: enhanced bactericidal effect; cytotoxicity in HeLa cells ([7]; 5X MIC concentration): ~ 18%
2 | CC(C)COc1ccc(-c2nn(-c3ccccc3)cc2CO)cc1 [compound 5175552, [3-(4-isobutoxyphenyl)-1-phenyl-1H-pyrazol-4-yl]methanol] | 27.02 (13.51–27.02) μM | 2 | 3.38 (3.38) μM | 13.51 (13.51–27.02) μM |  | competitive inhibition | 6.76 (6.76) μM | 2 | 0.257–0.263 | 27 (≈ 8.71 µg/mL) | 3.38 (≈ 1.09 µg/mL) | 13.5 (≈ 4.36 µg/mL) | 68 µM | 6.76 (≈ 2.18 µg/mL) | not cytotoxic | combined effect with INH against M. tuberculosis ([8]; in combination with INH): synergistic inhibitory effect; MBC/MIC ratio in combination with RIF, M. tuberculosis [2]: 1; bactericidal effect in combination with RIF against M. tuberculosis [2]: enhanced bactericidal effect
3 | CCC(C)c1ccc(OCCSc2nc3ccccc3[nH]2)cc1 (centres unmarked) [compound 6492687, 2-{[2-(4-sec-butylphenoxy)ethyl]thio}-1H-benzimidazole] |  | 1 | 9.57 (9.57) μM | 38.28 (19.14–38.28) μM |  | competitive inhibition |  | 4 | 0.257–0.263 | 38.3 (≈ 12.5 µg/mL) | 9.57 to 19.4 (≈ 3.12 to 6.33 µg/mL) | 32.7 to 38.8 (≈ 10.7 to 12.7 µg/mL) | 25 µM and 24 µM | 38.3 (≈ 12.5 µg/mL) | cytotoxic | 
4 | c1ccc(CC(Cc2nc3ccccc3[nH]2)c2nc3ccccc3[nH]2)cc1 (centres unmarked) [compound 5255825, 2,2'-(3-phenyl-1,2-propanediyl)bis-1H-benzimidazole] |  | 1 | 17.74 (8.87–17.74) μM | 35.47 (17.74–35.47) μM |  | competitive inhibition |  | 2 | 0.257–0.263 | 35.5 (≈ 12.5 µg/mL) | 9.57 to 19.4 (≈ 3.37 to 6.83 µg/mL) | 32.7 to 38.8 (≈ 11.5 to 13.7 µg/mL) | 4 µM | 35.5 (≈ 12.5 µg/mL) | cytotoxic | FICI in combination with INH, M. marinum [9]: 0.276
5 | 2-{[(2-methyl-6-phenyl-4-pyrimidinyl)thio]methyl}-1H-benzimidazole [compound 6513745] | 38.77 (19.39–38.77) μM | 1 |  | 32.68–38.77 μM and 38.77 (19.39–38.77) μM | 18 µM | noncompetitive inhibition | 38.77 (19.39–38.77) μM | 2 |  |  |  |  |  |  | not cytotoxic | combined effect with INH against M. marinum ([9]; in combination with INH): synergistic inhibitory effect; FICI in combination with INH, M. marinum [9]: 0.276
6 | N~1~,N~1~-diethyl-N~4~-{6-methoxy-2-[2-(4-nitrophenyl)vinyl]-4-quinolinyl}-1,4-pentanediamine [compound 5255829] | 32.68 (32.68) μM | 1 | 9.57–19.39 μM and 16.30 (8.15–16.30) μM | 32.68–38.77 μM and 32.68 (32.68) μM | 9 µM | competitive inhibition | 32.68 (32.68) μM | 2 |  |  |  |  |  |  | not cytotoxic | 
7 | CO[C@H]1/C=C/O[C@@]2(C)Oc3c(C)c(O)c4c(O)c(c(/C=N/N5CCN(C)CC5)c(O)c4c3C2=O)NC(=O)/C(C)=C\C=C\[C@H](C)[C@H](O)[C@@H](C)[C@@H](O)[C@@H](C)[C@H](OC(C)=O)[C@@H]1C [RIF, Rifampicin, reference compound] |  | 2 |  |  |  |  |  | 2 |  | 0.095 (≈ 0.0782 µg/mL) | 0.475 (≈ 0.391 µg/mL) | 0.048 (≈ 0.0395 µg/mL) |  | 0.95 (≈ 0.782 µg/mL) |  | 
8 | NNC(=O)c1ccncc1 [INH, Isoniazid, reference compound] |  | 1 |  |  |  |  |  | 1 |  | 2.27 (≈ 0.311 µg/mL) | 4.53 (≈ 0.621 µg/mL) | 2.27 (≈ 0.311 µg/mL) |  | 4.53 (≈ 0.621 µg/mL) |  | 
